Test results published in patent US20260297679A1, “ASSAYS FOR MONITORING INHIBITION OF RNA HELICASE DHX9” (ACCENT THERAPEUTICS, INC., priority 2023, published 2026).

Columns and labels:
DHX9 = test: qPCR (SYBR Green) of circular and linear RNAs in HCT116 cells after DHX9 inhibition; type: cell-based; settings: 72 hours, FIG. 1
Description: This experiment was conducted to evaluate circular and linear formats of different mRNA in HCT116 cells after treatment with DHX9 inhibitors by Quantitative Polymerase Chain Reaction (qPCR).
HCT116 cells were obtained from ATCC (CCL-247) and were grown and assayed in McCoy's 5a growth media supplemented with 10% FBS.
The cells were plated at pre-determined cell densities in 384-well cell culture plates and incubated overnight in 37° C. at 5% CO2. In a separate plate, reference and test compounds were prepared in DMSO stock solution and serially diluted 3-fold for 10 points. Compound 7 (0.1% final DMSO concentration) was transferred to the cell plate in designated wells, and incubated 37° C. at 5% CO2 for 72 hours.
RNA was extracted from the cells using the SYBR Green Fast Advanced Cell-to-CT kit according to manufacturer's (Invitrogen) protocol, and cDNA was reverse transcribed using the High Capacity RNA-to-cDNA Kit according to the manufacturer's (Invitrogen) protocol. Using RT^2 SYBR Green ROX qPCR Mastermix (Invitrogen) and thermal cycler conditions for the QuantStudio Thermocycler, qPCR was carried out using the below custom primer sequences obtained at Integrated DNA Technologies (IDT):
Data analysis was performed by using the QuantStudio Thermocycler software to determine threshold Ct values. ΔCt for circRNA or linRNA is calculated by normalizing the target gene Ct to the GAPDH housekeeping gene Ct for each sample. The inhibition activity is calculated by the following formula, whereas: […]
ΔCts: Mean of Ct(target gene)−Mean of Ct(GAPDH) for each sample
ΔCtc: Mean of Ct(target gene)−Mean of Ct(GAPDH) for DMSO control.

human PBMCs = test: proliferation of human PBMCs (Cell-Titer Glo 2.0); type: cell-based; settings: Compound 1 0.01 μM to 10 μM, 10 days; FIG. 8B
Description: Next, the proliferation of PMBCs was examined following treatment with DHX9 inhibitor using the following assay.
Human PBMCs were thawed from a frozen cryotube in a 37° C. water bath and transferred to a flask with medium X-Vivo 15 supplemented with 5% Fetal Bovine Serum (FBS), 1% PenStrep, and 1% Glutamax. Flasks were incubated at 37 C for 30 minutes. PBMCs were harvested from flask and counted. PBMCs were diluted in medium and added to 96 well plates at 100,000 PBMCs per well. A stimulus mixture containing IL-15 at 1 ng/well, IL-21 at 5 ng/well, and CD40L at 5 ng/well was added to each well. Test compounds were prepared in DMSO stock solution and serially diluted. Compound (0.1% final DMSO concentration) was added to each well. DMSO was used as a negative control (high control, HC) and staurosporine was used a positive control (low control, LC). Plates were incubated at 37 C for 0, 2, 4, 6, 8, 10 days. Every other day, medium was replenished with stimulus and diluted compounds.
At each CTG time point, plate was removed from incubator and Cell-Titer Glo 2.0 reagent was added to each well according to manufacturer's (Promega) protocol and detected on an Envision. The inhibition activity was calculated following the formula below:
% Inhibition=100×(ReadoutHC−ReadoutSample)/(ReadoutHC−ReadoutLC)
PBMCs were exposed to Compound 1 at concentrations ranging from 0.01 μM to 10 μM for 10 days. […]

Compound	induction of AKR1A1 circRNA (Alu-mediated) (DHX9)	induction of BRIP1 circRNA (Alu-mediated) (DHX9)	induction of DKC1 circRNA (Alu-mediated) (DHX9)	induction of SETD3 circRNA (non-Alu-mediated) (DHX9)	proliferation of PBMCs (human PBMCs)
CS(=O)(=O)Nc1cccc(NC(=O)c2cc(Br)cs2)c1 [Compound 7, 4-bromo-N-(3-methanesulfonamidophenyl)thiophene-2-carboxamide]	induced	induced	induced	no induction of SETD3 cirRNA was observed	–
CN[C@@H]1C[C@H]2O[C@@](C)([C@@H]1OC)n1c3ccccc3c3c4c(c5c6ccccc6n2c5c31)C(=O)NC4 [staustoporine, staurosporine, reference compound]	–	–	–	–	inhibited proliferation of PBMCs
